{"source": "ChEMBL document CHEMBL1201862", "about": "“PubChem BioAssay data set” (2004)", "key": {"[1]": {"molecular_target": "T1, Calpain-2 catalytic subunit (Sus scrofa, UniProt P43367)", "T1 sequence (P43367 whole entry)": "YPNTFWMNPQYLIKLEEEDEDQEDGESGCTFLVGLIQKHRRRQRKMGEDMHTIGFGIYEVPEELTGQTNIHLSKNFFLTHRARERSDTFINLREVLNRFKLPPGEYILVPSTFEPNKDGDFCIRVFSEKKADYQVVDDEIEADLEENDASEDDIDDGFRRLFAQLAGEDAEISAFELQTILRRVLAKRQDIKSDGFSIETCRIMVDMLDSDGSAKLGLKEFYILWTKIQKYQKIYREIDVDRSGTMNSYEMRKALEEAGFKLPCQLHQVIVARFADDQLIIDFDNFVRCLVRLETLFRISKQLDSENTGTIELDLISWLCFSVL", "assay": "pig calpain II inhibitor potency, dose response, biochemical, fluorogenic peptide substrate (AID 1420)", "format": "functional"}, "[2]": {"assay": "Shn3 3'UTR reporter inhibitors, dose response, cell-based, Clone20 osteoblasts, firefly luciferase, cherry-picked (AID 624132)", "format": "functional"}, "[3]": {"assay": "HepG2 cell cytotoxicity, dose response, cytotoxicity control for Shn3 inhibitor project, CellTiter-Glo, cherry-picked (AID 624134)", "format": "functional, cell-based"}, "[4]": {"assay": "control 3'UTR Renilla luciferase suppression, dose response, counter-screen for Shn3 inhibitor project, cell-based, Clone20-Shn3RL, cherry-picked (AID 624133)", "format": "functional"}, "[5]": {"assay": "ZM109 Env clade C HIV-1 fusion inhibitors, dose response, HeLa effector, CEM target cells, luciferase, cherry-pick (AID 652058)", "format": "functional, cell-based"}, "[6]": {"assay": "inhibitors of clade B AD8 Env fusion, dose response, cell-based, cherry-pick (AID 652062);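 note: potency is for inhibitors of fusion seen as a drop in luminescence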", "format": "functional"}, "Cytochrome P450 3A4": {"molecular_target": "Cytochrome P450 3A4 (Homo sapiens, UniProt P08684)", "sequence (P08684 whole entry)": "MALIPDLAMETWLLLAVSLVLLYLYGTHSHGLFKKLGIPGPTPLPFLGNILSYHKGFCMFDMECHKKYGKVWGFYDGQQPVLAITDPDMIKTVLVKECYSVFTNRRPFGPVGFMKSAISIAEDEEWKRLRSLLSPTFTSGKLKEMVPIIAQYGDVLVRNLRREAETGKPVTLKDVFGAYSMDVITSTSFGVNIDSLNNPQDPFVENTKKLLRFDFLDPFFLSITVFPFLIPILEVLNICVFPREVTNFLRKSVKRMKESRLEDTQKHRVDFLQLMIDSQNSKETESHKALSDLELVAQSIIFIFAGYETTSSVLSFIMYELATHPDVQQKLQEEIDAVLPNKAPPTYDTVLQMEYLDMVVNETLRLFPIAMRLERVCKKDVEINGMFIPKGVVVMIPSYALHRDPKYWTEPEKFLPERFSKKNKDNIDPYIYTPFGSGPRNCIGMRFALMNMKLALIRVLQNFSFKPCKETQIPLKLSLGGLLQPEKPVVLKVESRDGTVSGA", "conditions": "Potency"}, "[7]": {"assay": "Luminescence Cell-Based Dose Confirmation HTS to Identify Activators of 5'UTR Stem-Loop Driven Alpha-Synuclein mRNA Translation in H4 Neuroglioblastoma Cells. [Related pubchem assays: 1829 (Project Summary), 1814 (Primary HTS)]", "format": "functional"}, "[8]": {"assay": "Luminescence Cell-Based Dose Response HTS to Identify Activators of Luciferase Translation or Activity in H4 […] Cells. [Related pubchem assays: 1829 (Project Summary), 1814 (Primary HTS)]", "format": "functional"}, "H4": {"system": "H4", "assay": "Luminescence Cell-Based Dose Response HTS to Identify Activators of 5'UTR Stem-Loop Driven Prion Protein mRNA Translation in H4 Neuroglioblastoma Cells. [Related pubchem assays: 1829 (Project Summary), 1814 (Primary HTS)]", "format": "functional", "conditions": "Homo sapiens"}, "[9]": {"assay": "inhibitors of firefly luciferase expression or activity, dose response, H4 neuroglioma cells, luminescence (AID 1990)", "format": "functional, cell-based"}, "[10]": {"assay": "Luminescence Cell-Based Dose Response HTS to Identify Inhibitors of 5'UTR Stem-Loop Driven Prion Protein mRNA Translation in H4 Neuroglioblastoma Cells. [Related pubchem assays: 1827 (Project Summary), 1813 (Primary HTS)]", "format": "functional"}, "[11]": {"assay": "inhibitors of SNCA 5'UTR-driven reporter translation, confirmation, H4 neuroglioma cells, luminescence (AID 1988)", "format": "functional, cell-based"}, "[12]": {"assay": "microbe, parasite or virus in culture", "format": "functional", "conditions": "Mycobacterium tuberculosis"}, "[13]": {"assay": "Luminescence Cell-Based Dose Retest to Confirm Inhibitors of Cancer Stem Cells. [Related pubchem assays (depositor defined):AID2717, AID2721]", "format": "functional", "conditions": "Homo sapiens"}, "[14]": {"system": "Streptococcus sp. 'group A'", "assay": "growth inhibition of control SK(-) GAS strain, dose response, counter-screen for streptokinase expression inhibitor project, luminescence, kanamycin, BacTiterGlo, confirmation (AID 1900)", "format": "functional, organism-based"}, "Streptokinase A": {"molecular_target": "T2, Streptokinase A (Streptococcus pyogenes serotype M1, UniProt P10520)", "T2 sequence (P10520 whole entry)": "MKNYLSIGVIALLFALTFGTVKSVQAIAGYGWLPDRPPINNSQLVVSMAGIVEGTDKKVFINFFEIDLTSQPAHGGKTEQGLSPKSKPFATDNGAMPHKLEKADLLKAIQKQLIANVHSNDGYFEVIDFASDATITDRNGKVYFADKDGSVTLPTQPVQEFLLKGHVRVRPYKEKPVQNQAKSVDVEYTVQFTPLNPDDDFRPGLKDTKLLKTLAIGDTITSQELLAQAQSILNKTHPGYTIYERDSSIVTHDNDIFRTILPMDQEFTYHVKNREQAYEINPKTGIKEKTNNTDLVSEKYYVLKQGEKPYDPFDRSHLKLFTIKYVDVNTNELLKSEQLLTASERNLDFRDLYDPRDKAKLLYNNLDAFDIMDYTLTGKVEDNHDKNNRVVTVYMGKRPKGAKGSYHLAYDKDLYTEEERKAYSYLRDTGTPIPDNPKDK", "assay": "S. pyogenes streptokinase expression inhibitors, potency, dose response, plasminogen activation absorbance, OD405 (AID 1914);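 note: secreted streptokinase activity via plasminogen activation per viability signal from cell pellet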", "format": "functional, Streptococcus pyogenes M1 GAS"}, "Streptococcus": {"system": "Streptococcus", "assay": "Group A Streptococcus viability loss, dose response, counter-screen for streptokinase expression inhibitor project, luminescence, BacTiterGlo (AID 1915);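 note: potency for reduction of bacterial viability or growth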", "format": "functional, organism-based"}, "[15]": {"molecular_target": "Induced myeloid leukemia cell differentiation protein Mcl-1 (Homo sapiens, UniProt Q07820)", "sequence (Q07820 whole entry)": "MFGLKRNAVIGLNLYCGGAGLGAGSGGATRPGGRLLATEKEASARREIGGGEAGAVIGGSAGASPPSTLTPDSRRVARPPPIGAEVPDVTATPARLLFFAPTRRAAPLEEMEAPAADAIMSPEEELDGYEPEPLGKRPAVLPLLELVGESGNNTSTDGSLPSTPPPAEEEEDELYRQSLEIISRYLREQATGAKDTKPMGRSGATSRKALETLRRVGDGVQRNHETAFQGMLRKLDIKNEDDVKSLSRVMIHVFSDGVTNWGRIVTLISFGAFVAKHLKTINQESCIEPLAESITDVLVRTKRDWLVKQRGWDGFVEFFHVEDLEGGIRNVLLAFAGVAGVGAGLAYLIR", "format": "functional"}, "[16]": {"molecular_target": "T3, RNA-binding protein pos-1 (Caenorhabditis elegans, UniProt G5EF15)", "T3 sequence (G5EF15 whole entry)": "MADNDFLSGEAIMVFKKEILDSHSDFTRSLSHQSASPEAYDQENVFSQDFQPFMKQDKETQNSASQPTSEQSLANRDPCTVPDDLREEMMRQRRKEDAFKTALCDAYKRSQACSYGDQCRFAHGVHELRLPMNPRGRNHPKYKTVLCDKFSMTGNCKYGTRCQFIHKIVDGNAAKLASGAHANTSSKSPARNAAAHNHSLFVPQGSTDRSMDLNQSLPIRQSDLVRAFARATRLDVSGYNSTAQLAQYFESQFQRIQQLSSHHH", "assay": "inhibitors of POS-1/mex-3 RNA binding, dose response, biochemical, fluorescence polarization (AID 1964);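 note: purified POS-1 fused to maltose binding protein made in E. coli; potency of compounds blocking POS-1 binding to fluorescent RNA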"}, "[17]": {"molecular_target": "T4, Zinc finger protein mex-5 (Caenorhabditis elegans, UniProt Q9XUB2)", "T4 sequence (Q9XUB2 whole entry)": "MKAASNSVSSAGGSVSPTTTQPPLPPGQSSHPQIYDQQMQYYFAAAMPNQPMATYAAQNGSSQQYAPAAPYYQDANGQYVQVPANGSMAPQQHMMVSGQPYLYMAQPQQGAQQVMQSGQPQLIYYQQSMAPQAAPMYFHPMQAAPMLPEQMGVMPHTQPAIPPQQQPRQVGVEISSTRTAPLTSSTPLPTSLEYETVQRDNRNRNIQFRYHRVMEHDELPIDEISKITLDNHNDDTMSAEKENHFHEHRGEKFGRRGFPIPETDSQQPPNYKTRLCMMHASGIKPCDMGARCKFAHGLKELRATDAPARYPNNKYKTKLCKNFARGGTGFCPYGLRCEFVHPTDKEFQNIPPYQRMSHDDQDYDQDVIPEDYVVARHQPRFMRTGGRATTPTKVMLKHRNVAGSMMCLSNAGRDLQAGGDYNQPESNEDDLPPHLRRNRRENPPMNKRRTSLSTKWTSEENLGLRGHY", "assay": "MEX-5/TCR-2 RNA interaction inhibitors, dose response, biochemical, C. elegans, fluorescence polarization (AID 1960)"}}, "note": "Active and inactive are the calls of the source. Cut-off read from the data, not from the text of the source, for most assays here: actives have a measured EC50 and inactives only a lower limit."}
{"smiles": "COC(=O)c1cccc(NC(=O)c2cccc(OC)c2)c1", "values": [{"measurement": "IC50", "setting": "[1]", "result": "14.6 µM (not active)"}]}
{"smiles": "Cn1nc(-c2ccc(OCC(=O)N3CCN(Cc4ccccc4)CC3)cc2)c2ccccc2c1=O", "values": [{"measurement": "AC50", "setting": "[2]", "result": "2.1 µM (active)"}, {"measurement": "AC50", "setting": "[3]", "result": "32.4 µM (active)"}, {"measurement": "AC50", "setting": "[4]", "result": "4.74 µM (active)"}, {"measurement": "AC50", "setting": "[5]", "result": "27.4 µM (active)"}, {"measurement": "AC50", "setting": "[6]", "result": "23.5 µM (active)"}]}
{"smiles": "CC(=O)OC1CC2C(C)(C)C(O)C=C[C@@]2(C)C2CC[C@@]3(C)C(c4ccoc4)OC(=O)C4OC43[C@]12C", "note": "(stereo partly drawn)", "values": [{"measurement": "AC50", "setting": "Cytochrome P450 3A4", "result": "12.6 µM (inconclusive)"}]}
{"smiles": "COc1ccc(NC(=O)C2C(=O)N(CCO)C3(C)CC2c2ccccc2O3)cc1", "note": "(stereo not drawn)", "values": [{"measurement": "EC50", "setting": "[7]", "result": "7.35 µM (active)"}, {"measurement": "EC50", "setting": "[8]", "result": "14.8 µM (active)"}, {"measurement": "EC50", "setting": "H4", "result": "10.2 µM (active)"}]}
{"smiles": "COc1ccc(Nc2nc(N)c([N+](=O)[O-])c(NC3CCCCC3)n2)cc1", "values": [{"measurement": "EC50", "setting": "[9]", "result": "14.8 µM (active)"}, {"measurement": "EC50", "setting": "[10]", "result": "10.7 µM (active)"}, {"measurement": "EC50", "setting": "[11]", "result": "17.2 µM (active)"}, {"measurement": "CC50", "setting": "[12]", "result": "32 µM (active)"}, {"measurement": "AC50", "setting": "[13]", "result": "3.53 µM (active)"}]}
{"smiles": "Cc1ccc(Oc2cnn(-c3ccccc3)c(=O)c2Br)cc1", "values": [{"measurement": "EC50", "setting": "[7]", "result": "> 120 µM (not active)"}, {"measurement": "EC50", "setting": "[8]", "result": "27 µM (active)"}, {"measurement": "EC50", "setting": "H4", "result": "30.7 µM (active)"}]}
{"smiles": "O=C1/C(=C\\Nc2ccc(OC(F)(F)F)cc2)CCN1c1ncccn1", "values": [{"measurement": "EC50", "setting": "[7]", "result": "20.4 µM (active)"}, {"measurement": "EC50", "setting": "[8]", "result": "23.7 µM (active)"}, {"measurement": "EC50", "setting": "H4", "result": "14.6 µM (active)"}]}
{"smiles": "O=C(Nc1ccccc1C(=O)O)c1cccc(NC(=O)c2ccc(Br)o2)c1", "values": [{"measurement": "EC50", "setting": "[14]", "result": "6.27 µM (active)"}, {"measurement": "EC50", "setting": "Streptokinase A", "result": "6.41 µM (active)"}, {"measurement": "IC50", "setting": "[1]", "result": "12.1 µM (not active)"}, {"measurement": "EC50", "setting": "Streptococcus", "result": "9.37 µM (active)"}]}
{"smiles": "CC(=O)OC1CCC2(C)C3=C(CCC2C1(C)C)[C@]1(C)CCC(C(C)CCC=C(C)C)[C@]1(C)CC3", "note": "(stereo partly drawn)", "values": [{"measurement": "AC50", "setting": "Cytochrome P450 3A4", "result": "31.6 µM (inconclusive)"}]}
{"smiles": "CCOc1ccccc1NC(=O)/C=C/C(N)=O", "values": [{"measurement": "IC50", "setting": "[15]", "result": "1.1 µM (not active)"}]}
{"smiles": "O=C(O)CC(NC(=O)C1c2ccccc2Oc2ccccc21)c1ccc(OC2CCCC2)cc1", "note": "(stereo not drawn)", "values": [{"measurement": "IC50", "setting": "[1]", "result": "6.06 µM (not active)"}]}
{"smiles": "Cc1sc2c(c1C)CN(Cc1ccncc1)CN2C(=O)c1ccco1", "values": [{"measurement": "EC50", "setting": "[7]", "result": "> 120 µM (not active)"}, {"measurement": "EC50", "setting": "[8]", "result": "11 µM (active)"}, {"measurement": "EC50", "setting": "H4", "result": "> 60 µM (not active)"}]}
{"smiles": "CC1CCN(C(c2ccc(N(C)C)cc2)c2nnnn2C(C)(C)C)CC1", "note": "(stereo not drawn)", "values": [{"measurement": "IC50", "setting": "[15]", "result": "> 54 µM (active)"}]}
{"smiles": "COc1cccc2sc(NNC(=O)c3nc4ccccc4s3)nc12", "values": [{"measurement": "EC50", "setting": "[9]", "result": "> 120 µM (not active)"}, {"measurement": "EC50", "setting": "[10]", "result": "16.5 µM (active)"}, {"measurement": "EC50", "setting": "[11]", "result": "> 120 µM (not active)"}]}
{"smiles": "Cc1cc(C(=O)O)ccc1-n1c(C)cc(/C=C(/C#N)C(=O)Nc2ccccc2)c1C", "values": [{"measurement": "EC50", "setting": "[16]", "result": "> 300 µM (not active)"}, {"measurement": "EC50", "setting": "[17]", "result": "> 300 µM (not active)"}, {"measurement": "IC50", "setting": "[1]", "result": "12.6 µM (not active)"}]}
